Test results published in patent US7713994B2 (Wyeth LLC, priority 2005, dated 2010).
Like-named read-outs stand apart in the source and are kept apart here.

Legend:
MCF-7 = assay: Cytotoxicity assay (SRB), MCF-7; type: cell-based; conditions: MCF-7 cells, SRB, read-out: In Vitro Cellular Activity IC50 MCF-7
How it was run: (§1)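 Cells were seeded overnight in RPMI 1640 with 5% FBS at 37 °C, 7% CO2 (12000/well BT474, 4000 HCT-116, 6000 LoVo, 6000 MCF-7), then exposed to compound dilutions for 3 days (6 days for BT474). Survival versus untreated controls was measured by TCA fixation and SRB staining at 540 nm.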

cyclin D1/cdk 4 enzyme = target: T1, cyclin D1/cdk 4 enzyme (Homo sapiens, UniProt P11802); assay: CDK4 ELISA kinase assay (phospho-Rb ser 795 detection); type: biochemical
T1 construct: made in house; host or cells: Sf9 insect cells, recombinant baculovirus
T1 sequence (P11802 whole entry, species assumed): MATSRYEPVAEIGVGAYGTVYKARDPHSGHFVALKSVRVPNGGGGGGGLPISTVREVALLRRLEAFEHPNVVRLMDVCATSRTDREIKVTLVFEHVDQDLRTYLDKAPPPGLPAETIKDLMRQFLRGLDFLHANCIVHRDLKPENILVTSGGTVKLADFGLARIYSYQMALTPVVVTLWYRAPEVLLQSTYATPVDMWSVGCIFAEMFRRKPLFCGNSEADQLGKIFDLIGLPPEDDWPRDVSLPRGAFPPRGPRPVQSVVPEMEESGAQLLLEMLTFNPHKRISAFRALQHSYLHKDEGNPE
T1 sequence (P24385 whole entry partner, species assumed): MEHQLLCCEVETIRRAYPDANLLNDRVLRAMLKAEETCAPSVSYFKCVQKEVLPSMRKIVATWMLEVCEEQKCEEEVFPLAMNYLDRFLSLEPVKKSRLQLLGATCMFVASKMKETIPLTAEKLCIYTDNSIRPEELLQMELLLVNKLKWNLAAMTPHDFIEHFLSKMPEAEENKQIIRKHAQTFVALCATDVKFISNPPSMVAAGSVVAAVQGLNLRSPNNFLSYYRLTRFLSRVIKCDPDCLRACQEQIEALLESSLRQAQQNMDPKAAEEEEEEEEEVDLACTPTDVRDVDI
How it was run: (§2)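 Screening was done at 10 ug/ml compound. Each partially purified cyclin/CDK complex, produced in baculovirus-infected Sf9 cells, phosphorylated a coated GST-Rb C-terminal fragment with 200 μM ATP, and Ser795 phosphorylation was quantified by HRP-ELISA at 450 nm.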

cyclin E/CDK2 enzyme = target: T2, cyclin E/CDK2 enzyme (Homo sapiens, UniProt P24941); assay: CDK2 ELISA kinase assay (phospho-Rb ser 795 detection); type: biochemical
T2 construct: made in house; host or cells: Sf9 insect cells, recombinant baculovirus
How it was run: as §2

BT474 = assay: Cytotoxicity assay (SRB), BT474; type: cell-based
How it was run: as §1

LoVo = assay: Cytotoxicity assay (SRB), LoVo; type: cell-based; conditions: LoVo cells, SRB, read-out: In Vitro Cellular Activity IC50 LOVO
How it was run: as §1

cyclin B/CDK1 enzyme = target: T3, cyclin B/CDK1 enzyme (Homo sapiens, UniProt P06493); assay: CDK1 ELISA kinase assay (phospho-Rb ser 795 detection); type: biochemical
T3 construct: purchased New England BioLabs; host or cells: Sf9 insect cells, recombinant baculovirus
T3 sequence (P06493 whole entry): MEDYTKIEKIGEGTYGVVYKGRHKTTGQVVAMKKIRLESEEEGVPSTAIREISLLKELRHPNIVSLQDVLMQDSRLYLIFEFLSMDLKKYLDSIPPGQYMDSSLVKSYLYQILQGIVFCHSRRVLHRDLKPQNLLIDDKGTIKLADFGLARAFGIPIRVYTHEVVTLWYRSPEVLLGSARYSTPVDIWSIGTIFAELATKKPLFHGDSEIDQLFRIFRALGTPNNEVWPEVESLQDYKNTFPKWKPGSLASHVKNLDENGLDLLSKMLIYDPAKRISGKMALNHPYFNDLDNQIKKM
T3 sequence (P14635 whole entry partner): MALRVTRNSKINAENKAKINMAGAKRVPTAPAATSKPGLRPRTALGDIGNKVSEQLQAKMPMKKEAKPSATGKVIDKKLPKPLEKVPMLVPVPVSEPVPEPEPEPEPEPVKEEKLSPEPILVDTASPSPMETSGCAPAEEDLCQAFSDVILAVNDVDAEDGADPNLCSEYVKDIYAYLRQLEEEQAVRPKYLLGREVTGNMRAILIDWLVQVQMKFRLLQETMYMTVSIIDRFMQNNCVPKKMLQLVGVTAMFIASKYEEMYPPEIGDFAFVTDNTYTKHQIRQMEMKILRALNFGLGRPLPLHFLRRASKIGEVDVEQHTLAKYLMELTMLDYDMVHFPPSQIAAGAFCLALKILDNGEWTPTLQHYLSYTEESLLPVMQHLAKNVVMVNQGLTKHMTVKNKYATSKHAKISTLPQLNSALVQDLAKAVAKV
How it was run: as §2

HCT-116 = assay: Cytotoxicity assay (SRB), HCT-116; type: cell-based; conditions: HCT116 cells, SRB, read-out: In Vitro Cellular Activity IC50 HCT116
How it was run: as §1

[1] = Homo sapiens, MCF7, 72 h, 3 days
[2] = In Vitro Enzyme Assay, cyclin D1/cdk 4, read-out: CDK4 IC50
[3] = In Vitro Enzyme Assay, cyclin E/CDK2, read-out: CDK2 IC50
[4] = Homo sapiens, BT-474, 144 h, BT474 cells, 6 days, SRB; read-out: In Vitro Cellular Activity IC50 BT474
[5] = Homo sapiens, LoVo, 72 h, 3 days
[6] = In Vitro Enzyme Assay, cyclin B/CDK1, read-out: CDK1 IC50
[7] = Homo sapiens, HCT-116, 72 h, 3 days
[8] = Homo sapiens, MCF7, 72 h, three days
[9] = In Vitro Enzyme Assays, 200 μM ATP, read-out: CDK4 IC50
[10] = In Vitro Enzyme Assays, read-out: CDK2 IC50
[11] = Homo sapiens, BT-474, 144 h, BT474 cells, SRB, 6 days; read-out: In Vitro Cellular Activity IC50 BT474
[12] = Homo sapiens, LoVo, 72 h, three days
[13] = In Vitro Enzyme Assays, read-out: CDK1 IC50
[14] = Homo sapiens, HCT-116, 72 h, three days

Row | SMILES | IC50 (cyclin D1/cdk 4 enzyme; [2]) [nM] | IC50 (cyclin E/CDK2 enzyme; [3]) [µM] | IC50 (cyclin B/CDK1 enzyme; [6]) [µM] | IC50 (cyclin D1/cdk 4 enzyme; [9]) [nM] | IC50 (cyclin E/CDK2 enzyme; [10]) [µM] | IC50 (cyclin B/CDK1 enzyme; [13]) [µM] | IC50 (MCF-7; [1]) [µM] | IC50 (BT474; [4]) [µM] | IC50 (LoVo; [5]) [µM] | IC50 (HCT-116; [7]) [µM] | IC50 (MCF-7; [8]) [µM] | IC50 (BT474; [11]) [µM] | IC50 (LoVo; [12]) [µM] | IC50 (HCT-116; [14]) [µM] | further results
1 | CN1CCN(c2ccc(N/C=C3\C(=O)NC(=O)c4ccc(-c5ccc(OC(F)(F)F)cc5)cc43)cc2)CC1 [Example 298, (4Z)-4-({[4-(4-Methylpiperazin-1-yl)phenyl]amino}methylene)-6-[4-(trifluoromethoxy)phenyl]isoquinoline-1,3(2H,4H)-dione] |  |  |  | 29000 | > 50 | 40.6 |  |  |  |  | 2.8 | 6.3 | 9.8 | 2.1 | 
2 | CC(C)[Si](Oc1cc(CN/C=C2\C(=O)NC(=O)c3ccc(I)cc32)ccc1N)(C(C)C)C(C)C [Example 323, (4Z)-4-[({4-Amino-3-[(triisopropylsilyl)oxy]benzyl}amino)methylene]-6-iodoisoquinoline-1,3(2H,4H)-dione] |  |  |  |  | 42.5 |  |  |  |  |  | 10 | 18.3 | > 50 | 22 | IC50 (cyclin D1/cdk 4 enzyme; CDK4 IC50, In Vitro Enzyme Assays, 200 μM ATP): 1900 nM; IC50 (cyclin B/CDK1 enzyme; CDK1 IC50, In Vitro Enzyme Assays): > 50 µM
3 | CN(C)CCOc1ccc(N/C=C2\C(=O)NC(=O)c3ccc(Br)cc32)cc1 [Example 867, (4Z)-6-Bromo-4-[({4-[2-(dimethylamino)ethoxy]phenyl}amino)methylene]isoquinoline-1,3(2H,4H)-dione] |  |  |  |  |  |  | 6.7 | 8.3 | 5.3 | 3.5 |  |  |  |  | IC50 (cyclin D1/cdk 4 enzyme; In Vitro Enzyme Assay, read-out: CDK4 IC50): 480 nM; IC50 (cyclin E/CDK2 enzyme; In Vitro Enzyme Assay, read-out: CDK2 IC50): > 50 µM; IC50 (cyclin B/CDK1 enzyme; In Vitro Enzyme Assay, read-out: CDK1 IC50): > 50 µM
4 | COc1ccc(-c2ccc3c(c2)C(=CNCc2ccc(O)c(O)c2)C(=O)NC3=O)cc1 [Example 764, 4-[(3,4-Dihydroxy-benzylamino)-methylene]-6-(4-methoxy-phenyl)-4H-isoquinoline-1,3-dione] | 60 | 7.3 | 16.5 |  |  |  | 10.3 | 23.1 | 8.6 | 9.3 |  |  |  |  | 
5 | C[C@@H]1CN(c2ccc(N/C=C3\C(=O)NC(=O)c4ccc(-c5ccc(F)cc5)cc43)cc2)C[C@H](C)N1 [Example 205, (4Z)-4-({[4-(3,5-Dimethylpiperazin-1-yl)phenyl]amino}methylene)-6-(4-fluorophenyl)-isoquinoline-1,3(2H,4H)-dione] |  |  |  | 440 | 48.6 | 31 |  |  |  |  | 1.5 | 2.4 | 3.1 | 1.1 | 
6 | N#CCc1ccc(NC=C2C(=O)NC(=O)c3ccc(-c4ccc[nH]4)cc32)cc1 [Example 630, (4-{[1,3-Dioxo-6-(1H-pyrrol-2-yl)-2,3-dihydro-1H-isoquinolin-4-ylidenemethyl]-amino}-phenyl)-acetonitrile] | 200 | 17.3 | 31 |  |  |  | 20 | 45.3 | 45.8 | 26 |  |  |  |  | 
7 | CON(C)C(=O)C1CCN(c2ccc(N/C=C3\C(=O)NC(=O)c4ccc(I)cc43)cc2)CC1 [Example 432, 1-(4-{[(Z)-(6-Iodo-1,3-dioxo-2,3-dihydroisoquinolin-4(1H)-ylidene)methyl]amino}phenyl)-N-methoxy-N-methylpiperidine-4-carboxamide] |  |  |  | 6500 | > 50 | > 50 | 24.2 | 9.3 | 8.5 | 11.1 |  |  |  |  | 
8 | O=C1NC(=O)c2ccc(-c3nccs3)cc2/C1=C/Nc1ccc(CN2CCC[C@H]2CO)cc1 [Example 472, 4-{[4-(2-Hydroxymethyl-pyrrolidin-1-ylmethyl)-phenylamino]-methylene}-6-thiazol-2-yl-4H-isoquinoline-1,3-dione] | 600 | > 50 | > 50 |  |  |  | 14.2 | 9.1 | 8.9 | 5 |  |  |  |  | 
9 | O=C1NC(=O)c2ccc(I)cc2/C1=C/NCc1ccc(-c2ccccc2)c(O)c1 [Example 490, 4-{[(2-Hydroxy-biphenyl-4-ylmethyl)-amino]-methylene}-6-iodo-4H-isoquinoline-1,3-dione] | 130 | 15.1 | 47.8 |  |  |  | 0.88 | 0.26 | 0.34 | 0.42 |  |  |  |  | 
10 | COC(C)C1CCCN1Cc1ccc(N/C=C2\C(=O)NC(=O)c3ccc(I)cc32)cc1 (centres unmarked) [Example 375, 6-Iodo-4-({4-[2-(1-methoxy-ethyl)-pyrrolidin-1-ylmethyl]-phenylamino}-methylene)-4H-isoquinoline-1,3-dione] |  |  |  | 390 | > 50 | > 50 |  |  |  |  | 0.71 | 0.52 | 3.2 | 3.9 | 
11 | CN1CCN(c2ccc(N/C=C3\C(=O)NC(=O)c4ccc(-c5ccoc5)cc43)c(F)n2)CC1 [Example 497, (4Z)-4-({[2-Fluoro-6-(4-methylpiperazin-1-yl)pyridin-3-yl]amino}methylene)-6-(3-furyl)isoquinoline-1,3(2H,4H)-dione] | 370 | > 50 | > 50 |  |  |  |  |  |  |  |  |  |  |  | IC50 (MCF-7; 3 days): 1.4 µM; IC50 (BT474; BT474 cells, 6 days, SRB; read-out: In Vitro Cellular Activity IC50 BT474): 2.7 µM; IC50 (LoVo; 3 days): 3.2 µM; IC50 (HCT-116; 3 days): 2.6 µM
12 | CN1CCC(Oc2ccc(N/C=C3\C(=O)NC(=O)c4ccc(Br)cc43)cc2)C1 (centres unmarked) [Example 276, (4Z)-6-Bromo-4-[({4-[(1-methylpyrrolidin-3-yl)oxy]phenyl}amino)methylene]isoquinoline-1,3(2H,4H)-dione] |  |  |  | 42500 | > 50 | > 50 |  |  |  |  | 4.4 | 8.3 | 6.2 | 3.9 | 
13 | CN1CCN(C2CCC(NC=C3C(=O)NC(=O)c4ccc(I)cc43)CC2)CC1 (centres unmarked) [Example 360, 6-Iodo-4-{[4-(4-methyl-piperazin-1-yl)-cyclohexylamino]-methylene}-4H-isoquinoline-1,3-dione] |  |  |  | 460 | > 50 | > 50 |  |  |  |  | 8.9 | 16 | 9.6 | 9.6 | 

Now from value to compound, other results behind:

Row | IC50 (cyclin D1/cdk 4 enzyme; [2]) [nM] | IC50 (cyclin E/CDK2 enzyme; [3]) [µM] | IC50 (cyclin B/CDK1 enzyme; [6]) [µM] | IC50 (cyclin D1/cdk 4 enzyme; [9]) [nM] | IC50 (cyclin E/CDK2 enzyme; [10]) [µM] | IC50 (cyclin B/CDK1 enzyme; [13]) [µM] | SMILES | IC50 (MCF-7; [1]) [µM] | IC50 (BT474; [4]) [µM] | IC50 (LoVo; [5]) [µM] | IC50 (HCT-116; [7]) [µM] | IC50 (MCF-7; [8]) [µM] | IC50 (BT474; [11]) [µM] | IC50 (LoVo; [12]) [µM] | IC50 (HCT-116; [14]) [µM] | further results
14 | 10 | 15.4 | 28.3 |  |  |  | COc1ccc(CNC=C2C(=O)NC(=O)c3ccc(-c4ccc[nH]4)cc32)cc1O [Example 836, 4-[(3-Hydroxy-4-methoxy-benzylamino)-methylene]-6-(1H-pyrrol-2-yl)-4H-isoquinoline-1,3-dione] | 17.7 | 12.8 | 6.8 | 12.7 |  |  |  |  | 
15 | 170 | 9 | 15.4 |  |  |  | O=C1NC(=O)c2ccc(-c3ccc(F)cc3)cc2C1=CNCc1ccc(O)c(O)c1 [Example 767, 4-[(3,4-Dihydroxy-benzylamino)-methylene]-6-(4-fluoro-phenyl)-4H-isoquinoline-1,3-dione] | 25.2 | 44 | 21.4 | 25.9 |  |  |  |  | 
16 | 820 | 10 | 26.5 |  |  |  | O=C1NC(=O)c2ccc(-c3cccc(C(=O)O)c3)cc2C1=CNCc1ccc(O)c(O)c1 [Example 771, 3-{4-[(3,4-Dihydroxy-benzylamino)-methylene]-1,3-dioxo-1,2,3,4-tetrahydro-isoquinolin-6-yl}-benzoic acid] | > 50 | 33.3 | 48 | 39.5 |  |  |  |  | 
17 | 180 | > 50 | > 50 |  |  |  | COCCn1ccc(-c2ccc3c(c2)C(=CNc2ccc(N4CCN(C)CC4)cc2)C(=O)NC3=O)c1 [Example 843, 6-[1-(2-Methoxy-ethyl)-1H-pyrrol-3-yl]-4-{[4-(4-methyl-piperazin-1-yl)-phenylamino]-methylene}-4H-isoquinoline-1,3-dione] | 47.1 | > 50 | > 50 | 54.3 |  |  |  |  | 
